Assay: Plasma concentration of Gd-containing contrast agent after injection into jejunal pouch (MRI of plasma samples, standard curve)
Type: in vivo, rat
Settings: for concentration of the Gd-containing contrast agent in the plasma: 0.5 ml (0.5 M) into jejunal pouch, mean±SEM
Protocol: Male Wistar rats weighed 250 g to 300 g were used in this experiment. The rats were randomly divided into 2 groups: sham-operation control group (CON) and ischemia/reperfusion group (I/R). Before the experiment, the rats were fasted overnight but allowed to drink water ad lib. The experiment was conducted in a sterile environment. The rats in the two groups were anethesized by intraperitoneal injection of ethyl urethane (1.2 g/kg), and then subjected to abdominal median incision. A jejunal pouch of 10 cm was made at 10 cm from the end of suspensory ligament of duodenum. A 1 ml syringe with a PE-10 catheter was intubated to one end of the jejunal pouch and 0.5 ml of Krebs buffer solution was slowly injected into the pouch from the syringe. The formula of Krebs buffer solution was as follows: 115 mmol/L of NaCl, 8 mmol/L of KCl, 1.25 mmol/L of Ca Cl2, 1.2 mmol/L of MgCl2, 2.0 mmol/L of KH2PO4 and 25 mmol/L of NaHCO3, with a pH of 7.33 to 7.37. […] The CON rats were subjected to abdominal median incision but not subjected to SMA closure. Thereafter, the tissue samples were taken from the rats of these 2 groups for histologic examination and analysis of bacterial translocation (as shown below). […]
In order to determine the rate of the Gd-containing contrast agent transferred from jejunal lumen into systemic circulation, a PE-50 catheter was intubated into left femoral artery before the surgical operation. […] The intensity of signal indication of each plasma sample and of each standard solution was calculated by using a determining device to circle a region of 4 mm^2 in MRI image and to calculate the intensity of signal indication in the region (mm^2). […] The concentration of the Gd-containing contrast agent in the plasma samples at each time point was calculated, using the standard curve. The flow-out rate of the Gd-containing contrast agent flowing from intestinal lumen to systemic circulation at different stages of reperfusion was calculated and expressed in mM/min.

## CNC(=O)CN(CCN(CCN(CC(=O)[O-])CC(=O)NC)CC(=O)[O-])CC(=O)[O-].[Gd+3] [Gd-containing contrast agent]
CON rats (sham operation), 15 minutes
  concentration of the Gd-containing contrast agent in the plasma: 6 ± 4 µM
I/R rats (20 min SMA closure), after 15 minutes of reperfusion
  concentration of the Gd-containing contrast agent in the plasma: 220 ± 44 µM
Stage of 0-15 minutes of reperfusion
  flow-out rate of the Gd-containing contrast agent from intestinal lumen to systemic circulation, I/R rats versus CON rats: significantly higher than that in CON rats

Reference: US20090287077A1, “SYSTEM FOR DETECTING FUNCTION OF INTESTINAL BARRIER AND METHOD FOR USING THE SAME” (NATIONAL TAIWAN UNIVERSITY, priority 2008, published 2009)
